From US11091462B2, “(Hetero)arylamide compound for inhibiting protein kinase activity” (Shenzhen TargetRx, Inc., priority 2017, dated 2021) come the findings set out here.

One data set has as its system Ba/F3 parent cells. Put plainly: Cytotoxicity experiment, Ba/F3 parent cells (CellTiter-Glo). The data set is classed as cell-based. The following applies: Mus musculus, BaF3, 72 h; Ba/F3 parent cells with 8 ng/ml IL-3, 3 days. Here is the method:
(§1) Example 13: Cytotoxicity Experiment
(§2) The inhibitory effect of the Example compounds on the activity of Ba/F3 parent cell, Ba/F3 Bcr-Abl^T315I cell was examined.
(§3) 1. Preparation of cell plate: Ba/F3 parental cells, Ba/F3 Bcr-Abl^T315I cells were seeded in 96-well plates, and 8 ng/ml IL-3 was added to Ba/F3 parental cells. The cell plates were placed in carbon dioxide culture and incubated overnight.
(§4) 2. Preparation of test compounds: The test compounds were dissolved in DMSO and subjected to a 3.16-fold gradient dilution in triplicate, 9 concentrations were obtained, starting from the concentration of 10 μM.
(§5) 3. Treatment of Cells with compounds: Compounds at various concentrations were transferred to cell plates. The cell plates were incubated in a carbon dioxide incubator for 3 days.
(§6) 4. Detection: CellTiter-Glo4 reagent was added to the cell plates, which were incubated for 30 minutes at room temperature to stabilize the luminescence signal. Readings were performed using a PerkinElmer Envision multi-label analyzer.
For orientation: Cellular ATP, detected with luciferase, serves as a proxy for viable cell number.

Data set [1] addresses T1, Ba/F3 Bcr-Abl^T315I cells (Homo sapiens, UniProt P00519, T315I, cells depend on it).
T1 construct: Ba/F3 Bcr-Abl1^T315I IC50; other: Ba/F3 Bcr-Abl T315I cells, 3 days; fused on or other part: P11274 (Breakpoint cluster region protein)
In words: Cytotoxicity experiment, Ba/F3 Bcr-Abl T315I cells (CellTiter-Glo). Format: cell-based. The following applies: 3 days, read-out: Ba/F3 Bcr-Abl1^T315I IC50. Here is the method:
as §1, §2, §3, §4, §5, §6

The nature of data set [2]: Pharmacokinetic experiment in rats. The data set is classed as in vivo, Sprague-Dawley rats. Also noted: Cl—pred: unit not given here. Conditions: for AUC(0-t) / Cmax / MRT inf / Vd: male, Sprague-Dawley, rat, plasma; for MRT inf: read-out: MRTINF—pred; for Vd: read-out: Vz—pred; for F: oral 20 mg/kg vs IV 2 mg/kg. As to the method:
9 Male Sprague-Dawley rats, 7-8 weeks old, weighted 210 g, divided into 3 groups with 3 rats in each group, were intravenously (2 mg/kg) or orally (20 mg/kg) given a single dose of compound, and differences in pharmacokinetics of the rats were compared.
Rats were fed with a standard diet and water. Fasting began 16 hours before the test. The drugs were dissolved in PEG400 and dimethyl sulfoxide. Blood was collected from the eyelids at a time point of 0.083 hour, 0.25 hour, 0.5 hour, 1 hour, 2 hours, 4 hours, 6 hours, 8 hours, 12 hours, and 24 hours after administration.
Rats were briefly anesthetized after inhalation of ether, and 300 μL of blood samples were collected from the eyelids to test tubes. There was 30 μL of 1% heparin salt solution in the test tube. The tubes were dried overnight at 60° C. before use. After the blood sample was collected at the last time point, rats were anesthetized with ether and sacrificed.
Immediately after the collection, blood samples were sufficiently mixed by gently inverting the tube at least 5 times, and were placed on ice. Blood samples were centrifuged at 5000 rpm for 5 minutes at 4° C. to separate plasma from red blood cells. 100 μL of the plasma was pipetted into a clean plastic centrifuge tube, marking the name of the compound and collecting time. Plasma was stored at −80° C. prior to analysis. The concentration of the compounds disclosed herein in plasma was determined by LC-MS/MS. Pharmacokinetic parameters were calculated based on drug concentrations in plasma of each animal at different time points.

The test system of data set [3] is BA/F3 (BCR-ABL^T315I) cells. In words: Pharmacodynamic evaluation in BA/F3 (BCR-ABL T315I) subcutaneous tumor model. Format: in vivo, NOD/SCID mice. Conditions: 15 mg/kg twice a day. As to the method: Feeding environment: SPF level.
Each NOD/SCID mouse was subcutaneously inoculated with 5×10^6 BA/F3 (BCR-ABL^T315I) cells in the right dorsal area, wherein the cells were resuspended in PBS (0.1 ml/mouse), to establish a subcutaneous tumor model. […] The efficacy was evaluated according to the relative tumor growth inhibition rate (TGI), and the safety evaluation was performed according to the body weight changes and deaths of the animals.
The experimental protocols for animal experiment disclosed herein were reviewed and approved by the CrownBio IACUC committee. During the experiment, the procedures of the animal experiment were carried out according to the requirements of AAALAC. After tumor inoculation, the effects of tumor growth and treatment on normal animal behavior were routinely monitored, including experimental animal activity, feeding and drinking, weight gain or loss, eye, hair and other abnormalities. Abnormal clinical symptoms observed during the experiment were recorded in the raw data. Mice body weight and tumor size were measured and recorded three times per week during the experiment. The mice were weighed before each administration and administered according to the weight thereof.
Relative tumor growth inhibition rate TGI (%):
T/C % is the relative tumor proliferation rate, that is, the percentage of tumor volume or tumor weight of the treatment group and the control group at a certain time point. T and C are the relative tumor volume (RTV) or tumor weight (TW) of the treatment group and the control group at a specific time point, respectively.
All experimental results were expressed as mean±standard error (x±s), and the significant difference of the tumor volume at 12 days after grouping between the control group and each treatment group was evaluated with one-way ANOVA, and significant difference of the tumor volume between the control group and each treatment group or between each treatment group was evaluated using Games-Howell (heterogeneity of variance), p<0.05 was considered to be significant.

The format of data set [4] is in vivo. Conditions: 15 mg/kg twice a day.

Structures are written as SMILES. Several values for one entry are separate records, joined by “and”; a condition that tells them apart may be missing. Identical values can stand only once. Like-named read-outs stand apart in the source and are kept apart here.

Broadly, the IC50 is the point on the concentration scale where inhibition reaches its midpoint. Consider `O=C(Nc1ccc(OC(F)(F)Cl)cc1)c1cnc(N2CC[C@@H](O)C2)c(-c2cncnn2)c1` [Example 5, (R)-6-(3-hydroxypyrrolidin-1-yl)-5-(1,2,4-triazin-6-yl)-N-(4-(chlorodifluoromethoxy)phenyl)nicotinamide], for which the IC50 in the data set with Ba/F3 parent cells is more than 1 µM. For the same compound, the GI50 in data set [1] was 0.1 to 0.5 µM.

For `O=C(Nc1ccc(OC(F)(F)Cl)cc1)c1cnc(N2CC[C@@H](O)C2)c(-c2cccnn2)c1` [Example 2, (R)-6-(3-hydroxypyrrolidin-1-yl)-5-(pyridazine-3-yl)-N-(4-(chlorodifluoromethoxy)phenyl)nicotinamide], the IC50 in the data set on Ba/F3 parent cells was more than 1 µM. In addition, the GI50 in data set [1] lay in the range of 0.1 to 0.5 µM.

Usually AUC(0-t) stands for exposure summed from dosing to a finite time, without extrapolation to infinity. By Cmax is commonly meant the highest concentration seen after dosing. Consider `O=C(Nc1ccc(OC(F)(F)Cl)cc1)c1cnc(N2CC[C@@H](F)C2)c(-c2cnccn2)c1` [Example 7, (R)-6-(3-fluoropyrrolidin-1-yl)-5-(pyrazin-2-yl)-N-(4-(chlorodifluoromethoxy)phenyl)nicotinamide], for which the IC50 in the data set on Ba/F3 parent cells is more than 1 µM. The “Cl—pred” value in data set [2] (IV 2 mg/kg single dose) came out at 0.54; in data set [2] (PO 20 mg/kg single dose), 0.90. Moreover, the “Vz—pred” value in data set [2] (PO 20 mg/kg single dose) was found to be 2.52 L/kg. Moreover, the results for the AUC(0-t) in data set [2] (IV 2 mg/kg single dose) and in data set [2] (PO 20 mg/kg single dose) were 3740 ng·h/mL and 23100 ng·h/mL, respectively. Also, the highest concentration (Cmax) was 4510 ng/mL in data set [2] (IV 2 mg/kg single dose) and 2370 ng/mL in data set [2] (PO 20 mg/kg single dose). Besides, the MRT inf in data set [2] (IV 2 mg/kg single dose) is 1.14 h; in data set [2] (PO 20 mg/kg single dose), 5.43 h. Also, the Vd in data set [2] (IV 2 mg/kg single dose) turned out to be 0.79 L/kg. Moreover, the F in data set [2] worked out at 61.95%. Further, the “Tumor volume (x ± S)” value was 175 ± 17 mm^3 in data set [3] (at day 2 after grouping); 237 ± 27 mm^3 in data set [3] (at day 5 after grouping); 432 ± 24 mm^3 in data set [3] (at day 8 after grouping); 590 ± 51 mm^3 in data set [3] (at day 10 after grouping); 790 ± 64 mm^3 in data set [3] (at day 12 after grouping); 1145 mm^3 and 1145 ± 116 mm^3 in data set [3] (at day 15 after grouping). In addition, the “Tumor volume (x ± S)” value in data set [3] (at day 17 after grouping) came out at 1532 ± 129 mm^3; in data set [3] (at day 19 after grouping) it was 1761 ± 212 mm^3; in data set [3] (at day 22 after grouping), 2216 ± 126 mm^3; in data set [3] (at the day of grouping), 160 ± 11 mm^3. Further, the “relative tumor growth inhibition rate TGI” value in data set [3] (at day 15 after grouping) is given as 53.1%. In data set [4] (at day 22 after grouping), the “average body weight of the mice increased by” value came out at 1.3%. For the same compound, the “decrease in the body weight of mice during the experiment” value in data set [4] (during the experiment) was “no mouse in the Example 7 15 mg/kg group had a decrease in the body weight”. The GI50 in data set [1] was not above 0.1 µM.

Take `O=C(Nc1ccc(OC(F)(F)Cl)cc1)c1cnc(N2CC[C@@H](O)C2)c(-c2ccnnc2)c1` [Example 3, (R)-6-(3-hydroxypyrrolidin-1-yl)-5-(pyridazine-4-yl)-N-(4-(chlorodifluoromethoxy)phenyl)nicotinamide]: in the data set with Ba/F3 parent cells, the IC50 was more than 1 µM. Moreover, the GI50 in data set [1] lay in the range of 0.5 to 1 µM.

For `O=C(Nc1ccc(OC(F)(F)Cl)cc1)c1cnc(N2CC[C@@H](O)C2)c(-c2ccn[nH]2)c1` [ABL-001, (R)—N-(4-(chlorodifluoromethoxy)phenyl)-6-(3-hydroxypyrrolidin-1-yl)-5-(1H-pyrazol-5-yl)nicotinamide, reference compound], in data set [2] (PO 20 mg/kg single dose), the “Vz—pred” value came to 5.14 L/kg, the area under the curve AUC(0-t) was determined as 13700 ng·h/mL and the concentration peaked (Cmax) at 1770 ng/mL. For the same compound, in data set [2] (IV 2 mg/kg single dose), the AUC(0-t) came to 6900 ng·h/mL and the Vd came to 0.54 L/kg. The F in data set [2] was 19.86%.

For the compound `Nc1ncc(-c2cc(C(=O)Nc3ccc(OC(F)(F)Cl)cc3)cnc2N2CC[C@@H](O)C2)nn1` [Example 4, (R)-6-(3-hydroxypyrrolidin-1-yl)-5-(3-amino-1,2,4-triazin-6-yl)-N-(4-(chlorodifluoromethoxy)phenyl)nicotinamide], the IC50 with Ba/F3 parent cells is more than 1 µM. In addition, in data set [1], the GI50 is 0.1 to 0.5 µM.

Take `O=C(Nc1ccc(OC(F)(F)Cl)cc1)c1cnc(N2CC[C@@H](O)C2)c(-c2cnccn2)c1` [Example 1, (R)-6-(3-hydroxypyrrolidin-1-yl)-5-(pyrazin-2-yl)-N-(4-(chlorodifluoromethoxy)phenyl)nicotinamide]: the IC50 with Ba/F3 parent cells is more than 1 µM. In data set [2] (IV 2 mg/kg single dose), the “Cl—pred” value is on record as 0.35, the exposure AUC(0-t) stood at 5700 ng·h/mL, the Cmax worked out at 4820 ng/mL and the MRT inf turned out to be 1.37 h. Further, in data set [2] (IV 2 mg/kg single dose), the Vd turned out to be 0.7 L/kg. Further, in data set [2] (PO 20 mg/kg single dose), the “Cl—pred” value came out at 0.54, the “Vz—pred” value came out at 1.68 L/kg, the AUC(0-t) was 38000 ng·h/mL and the concentration peaked (Cmax) at 4330 ng/mL. In addition, the MRT inf in data set [2] (PO 20 mg/kg single dose) is 5.43 h. This compound also came in with a F in data set [2] of 66.68%. Further, the GI50 in data set [1] is not above 0.1 µM.

For the compound `O=C(Nc1ccc(OC(F)(F)Cl)cc1)c1cnc(N2CC[C@@H](O)C2)c(-c2nccnn2)c1` [Example 6, (R)-6-(3-hydroxypyrrolidin-1-yl)-5-(1,2,4-triazin-3-yl)-N-(4-(chlorodifluoromethoxy)phenyl)nicotinamide], in the data set on Ba/F3 parent cells, the half-maximal inhibitory concentration (IC50) was more than 1 µM. For the same compound, the GI50 in data set [1] is more than 1 µM.
